{"source": "patent US20240239786A1", "about": "“COMPOSITIONS AND METHODS FOR THE TREATMENT AND PREVENTION OF CANCER” (Yale University, priority 2021, published 2024)", "key": {"[1]": {"assay": "Chemical stability of DB4 in culture medium by mass spectrometry", "type": "physicochemical", "conditions": "50 μM, 37° C., 72 hr vs 0 hr", "method": "DB4 remained mostly active and intact after 72 hr in the culture medium. The dose response curve of DB4 in DNA synthesis inhibition in PEO4 cells was generated as determined by EdU flow cytometric analysis. […] PEO4 cells were treated with these media for 24 hr. The level of DNA synthesis inhibition was determined to interpolate and calculate % DB4 remaining compared with the control at 0 hr. FIG. 5B depicts representative results for remaining DB4 after DB4 (MW=496.1) was added to the culture medium at 50 μM for 0 hr, 24 hr, 48 hr, or 72 hr at 37° C. FIG. 5C depicts representative mass spectrum obtained from mass spectrometry that was run to detect the level of the 496.13 ion at 0 hr. FIG. 5D depicts representative mass spectrum obtained from mass spectrometry that was run to detect the level of the 496.13 ion at 72 hr.\nTo ensure that DB4 remained chemically stable, the time course study was performed by determining the potency of DB4 following a pre-incubation in the cell-free medium at 37° C. for up to 72 hr. Cells were treated for 24 hr with the medium containing pre-incubated DB4 and DNA synthesis was determined by the EdU incorporation assay.\nDB4 was dissolved in DMEM medium at 50 μM and incubated for 0 hr, 24 hr, 48 hr, and 72 hr at 37° C. and flash frozen after incubation. […]"}, "cNHEJ activity": {"tested_on": "cNHEJ activity", "assay": "NHEJ reporter assay in SKOV3-EJ5-GFP cells", "type": "cell-based", "conditions": "I-SceI-mediated DSBs", "source_text": "Cells were transfected with the ISceI-expressing plasmid and then treated various concentrations of DB4 for 48 hr. Cells were harvested, stained with 7-AAD, and analyzed by flow cytometry for GFP-positive cells indicative of HR repair activity. […] Cells were transfected with the ISceI-expressing plasmid and treated with various concentrations of DB4. Cells were harvested, stained with 7-AAD, and stained, and analyzed by flow cytometry for GFP-positive cells indicative of NHEJ activity. Data are means±SD (N=3). *, p<0.05; **, p<0.01, compared with the 0 μM control of ISceI-transected cells. FIG. 7C depicts representative results of confocal imaging of olaparib-induced nuclear Rad51 foci in SKOV3 cells treated DB4. […] Cells were also scored for nuclei containing equal or more than 10 distinct Rad51 foci to determine the percentage of cells positive for Rad51 foci. […] Protein was assessed by western blot analysis for the levels of γH2AX, p-H1, cyclin A2, p-CDK1/2, and HSC70. […] The band density of γH2AX indicative of DSBs was quantified by densitometry. […]\nSKOV3-DR-GFP cells were established as described previously (Lin Z P et al., 2014, Molecular Cancer Res, 12:381-393). […] Cells were then trypsinized, stained with 7-AAD, and analyzed for the percentage of GFP-positive and […] cells by flow cytometry using an LSR II flow cytometer (BD Biosciences) and FlowJo software (Tree Star; Ashland, OR). […]"}, "SKOV3 cells": {"tested_on": "SKOV3 cells", "assay": "Clonogenic assay, SKOV3", "type": "cell-based", "conditions": "DB4 at 6 μM, 14 days", "method": "Cells were plated for 24 hr, pre-treated with DB4 for 1 hr, and then treated with various concentrations of olaparib for 14 days. Colonies were stained and determined for clonogenic survival.\nTo further substantiate the effectiveness of DB4 and mitigate the issue of off-target effects with a higher concentration range of drugs used in the MTS cytotoxicity assay, clonogenic assays were carried out to determine the long-term survival of cells in response to treatments.\nThe assay was conducted as described previously (Lin Z P et al., 2014, Molecular Cancer Res, 12:381-393). Cells were plated at various densities in 6-well plates in triplicate. After 24 hr of incubation, cells were treated continuously with various concentrations of olaparib, DB4, or both drugs in combination. After 12-14 days, colonies were fixed/stained with crystal violet solution and counted to determine the percentage of survival using a GelDoc imaging system with QuantityOne software (Bio-Rad, Hercules, CA)."}}, "data": [{"smiles": "C=CCn1c(SCc2cccc(Cl)c2)nnc1C1CCN(Cc2nc3ccccc3s2)CC1", "note": "[DB4, 2-[(4-{4-allyl-5-[(3-chlorobenzyl)thio]-4H-1,2,4-triazol-3-yl}-1-piperidinyl)methyl]-1,3-benzothiazole]", "values": [{"measurement": "level of DB4 by mass spectrometry", "setting": "[1]", "value": "remained similar to that of the 0 hr control"}, {"measurement": "cNHEJ activity", "setting": "cNHEJ activity", "value": "appeared to enhance the cNHEJ activity induced by I-SceI-mediated DSBs but the increase was not statistically significant"}, {"measurement": "clonogenic survival in the presence of olaparib", "setting": "SKOV3 cells", "value": "effectively reduced the clonogenic survival"}]}]}
